Results published in patent EP4722207A1, “OXOISOINDOLINYL-SUBSTITUTED TETRAHYDROPYRIMIDINEDIONE DERIVATIVE AND USE THEREOF” (Gluetacs Therapeutics (Shanghai) Co., Ltd., priority 2023, dated 2024).

Columns and labels:
Type in all cases: cell-based
IKZF2 = target: T1, IKZF2 (Homo sapiens, UniProt Q96SW2+Q9UKS7); experiment: Western-blot assay, substrate protein degradation in hPBMCs: IKZF2; settings: for IKZF2 substrate protein remaining %: compounds at 50 nM and 500 nM, 24 hours; for substrate protein remaining % IKZF2: 24 hours of compound treatment, 50 nM and 500 nM
T1 construct: effects of the compounds of the present disclosure on the expression of target proteins in cells; endogenous in cells; host or cells: human PBMCs (hPBMCs)
T1 sequence (Q9UKS7 whole entry): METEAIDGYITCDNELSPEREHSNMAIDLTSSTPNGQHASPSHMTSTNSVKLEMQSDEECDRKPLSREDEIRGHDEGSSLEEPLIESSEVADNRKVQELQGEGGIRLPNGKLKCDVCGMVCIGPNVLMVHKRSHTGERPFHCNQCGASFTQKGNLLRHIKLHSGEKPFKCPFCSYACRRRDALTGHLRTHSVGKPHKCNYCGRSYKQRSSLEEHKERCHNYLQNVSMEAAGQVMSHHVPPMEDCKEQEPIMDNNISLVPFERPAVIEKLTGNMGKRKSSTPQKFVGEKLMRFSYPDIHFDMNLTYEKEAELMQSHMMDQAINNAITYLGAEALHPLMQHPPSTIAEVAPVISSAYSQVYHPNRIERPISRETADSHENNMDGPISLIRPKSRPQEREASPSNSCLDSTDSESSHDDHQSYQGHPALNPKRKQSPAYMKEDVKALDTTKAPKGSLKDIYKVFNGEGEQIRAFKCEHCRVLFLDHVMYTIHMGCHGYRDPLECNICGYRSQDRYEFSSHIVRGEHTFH
T1 sequence (Q96SW2 whole entry): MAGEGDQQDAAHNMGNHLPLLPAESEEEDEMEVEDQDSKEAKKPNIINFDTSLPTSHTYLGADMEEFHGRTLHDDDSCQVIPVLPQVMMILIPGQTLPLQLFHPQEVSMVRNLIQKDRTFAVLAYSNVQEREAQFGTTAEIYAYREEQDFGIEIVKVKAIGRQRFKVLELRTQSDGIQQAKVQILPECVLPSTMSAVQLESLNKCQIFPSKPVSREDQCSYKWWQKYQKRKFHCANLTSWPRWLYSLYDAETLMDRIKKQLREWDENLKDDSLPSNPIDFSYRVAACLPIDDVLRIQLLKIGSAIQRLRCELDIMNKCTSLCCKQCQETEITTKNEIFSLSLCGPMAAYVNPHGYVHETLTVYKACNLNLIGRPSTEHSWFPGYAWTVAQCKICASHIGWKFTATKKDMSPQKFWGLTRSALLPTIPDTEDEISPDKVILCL
T1 sequence (Q16531 whole entry partner): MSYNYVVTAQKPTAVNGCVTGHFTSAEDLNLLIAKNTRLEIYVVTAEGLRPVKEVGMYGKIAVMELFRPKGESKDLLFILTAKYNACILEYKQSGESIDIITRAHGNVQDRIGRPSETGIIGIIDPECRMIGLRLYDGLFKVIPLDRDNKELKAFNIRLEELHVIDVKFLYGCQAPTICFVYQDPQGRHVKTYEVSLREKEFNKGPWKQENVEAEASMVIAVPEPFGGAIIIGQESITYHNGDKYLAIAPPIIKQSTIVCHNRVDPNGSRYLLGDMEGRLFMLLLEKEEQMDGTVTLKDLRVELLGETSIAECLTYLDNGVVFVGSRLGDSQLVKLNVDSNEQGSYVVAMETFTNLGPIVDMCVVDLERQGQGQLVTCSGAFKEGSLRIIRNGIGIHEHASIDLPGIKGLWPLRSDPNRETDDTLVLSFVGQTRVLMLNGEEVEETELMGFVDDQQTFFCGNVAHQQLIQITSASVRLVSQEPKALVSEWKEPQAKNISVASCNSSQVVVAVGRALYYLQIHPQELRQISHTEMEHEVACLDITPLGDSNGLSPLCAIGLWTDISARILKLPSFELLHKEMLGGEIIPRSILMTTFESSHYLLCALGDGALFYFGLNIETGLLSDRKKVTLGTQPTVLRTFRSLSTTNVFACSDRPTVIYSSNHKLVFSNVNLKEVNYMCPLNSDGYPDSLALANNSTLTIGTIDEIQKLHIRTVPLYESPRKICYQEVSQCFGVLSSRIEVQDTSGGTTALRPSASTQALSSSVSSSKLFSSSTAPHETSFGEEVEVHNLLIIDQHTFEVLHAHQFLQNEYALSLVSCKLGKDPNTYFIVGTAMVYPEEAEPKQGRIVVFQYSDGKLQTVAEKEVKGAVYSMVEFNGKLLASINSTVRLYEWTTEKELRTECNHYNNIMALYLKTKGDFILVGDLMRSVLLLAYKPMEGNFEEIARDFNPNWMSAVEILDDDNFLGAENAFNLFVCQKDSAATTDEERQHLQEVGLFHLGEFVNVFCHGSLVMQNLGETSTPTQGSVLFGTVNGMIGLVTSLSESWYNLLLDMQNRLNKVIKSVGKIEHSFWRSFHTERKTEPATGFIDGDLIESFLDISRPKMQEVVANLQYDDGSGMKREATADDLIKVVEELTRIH

GSPT1 = target: T2, GSPT1 (Homo sapiens, UniProt P15170+Q96SW2); experiment: Western-blot assay, substrate protein degradation in hPBMCs: GSPT1; settings: for GSPT1 substrate protein remaining %: compounds at 50 nM and 500 nM, 24 hours; for substrate protein remaining % GSPT1: 24 hours of compound treatment, 50 nM and 500 nM
T2 construct: effects of the compounds of the present disclosure on the expression of target proteins in cells; endogenous in cells; host or cells: human PBMCs (hPBMCs)
T2 sequence (P15170 whole entry): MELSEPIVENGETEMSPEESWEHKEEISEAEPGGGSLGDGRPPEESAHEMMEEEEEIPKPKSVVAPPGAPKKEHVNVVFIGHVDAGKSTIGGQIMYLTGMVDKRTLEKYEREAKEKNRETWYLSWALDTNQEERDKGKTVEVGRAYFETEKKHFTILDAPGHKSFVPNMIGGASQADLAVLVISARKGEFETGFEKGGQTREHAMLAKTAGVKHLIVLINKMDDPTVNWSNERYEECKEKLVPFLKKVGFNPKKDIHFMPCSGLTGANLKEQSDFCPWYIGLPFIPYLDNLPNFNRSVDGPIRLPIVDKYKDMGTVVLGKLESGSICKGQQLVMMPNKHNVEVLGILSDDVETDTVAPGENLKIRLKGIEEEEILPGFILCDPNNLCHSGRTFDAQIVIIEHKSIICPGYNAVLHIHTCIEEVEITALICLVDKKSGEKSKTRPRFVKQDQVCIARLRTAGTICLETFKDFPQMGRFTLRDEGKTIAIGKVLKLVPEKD
T2 sequence (Q96SW2 whole entry): as the sequence (Q96SW2 whole entry) above
T2 sequence (Q16531 whole entry partner): as the sequence (Q16531 whole entry partner) above

IKZF1 = target: T3, IKZF1 (Homo sapiens, UniProt Q13422+Q96SW2); experiment: Western-blot assay, substrate protein degradation in hPBMCs: IKZF1; settings: for IKZF1 substrate protein remaining %: compounds at 50 nM and 500 nM, 24 hours; for substrate protein remaining % IKZF1: 24 hours of compound treatment, 50 nM and 500 nM
T3 construct: effects of the compounds of the present disclosure on the expression of target proteins in cells; endogenous in cells; host or cells: human PBMCs (hPBMCs)

CK1α = target: T4, CK1α (Homo sapiens, UniProt P48729+Q96SW2); experiment: Western-blot assay, substrate protein degradation in hPBMCs: CK1α; settings: for CK1α substrate protein remaining %: compounds at 50 nM and 500 nM, 24 hours; for substrate protein remaining % CK1α: 24 hours of compound treatment, 50 nM and 500 nM
T4 construct: effects of the compounds of the present disclosure on the expression of target proteins in cells; endogenous in cells; host or cells: human PBMCs (hPBMCs)
T4 sequence (P48729 whole entry): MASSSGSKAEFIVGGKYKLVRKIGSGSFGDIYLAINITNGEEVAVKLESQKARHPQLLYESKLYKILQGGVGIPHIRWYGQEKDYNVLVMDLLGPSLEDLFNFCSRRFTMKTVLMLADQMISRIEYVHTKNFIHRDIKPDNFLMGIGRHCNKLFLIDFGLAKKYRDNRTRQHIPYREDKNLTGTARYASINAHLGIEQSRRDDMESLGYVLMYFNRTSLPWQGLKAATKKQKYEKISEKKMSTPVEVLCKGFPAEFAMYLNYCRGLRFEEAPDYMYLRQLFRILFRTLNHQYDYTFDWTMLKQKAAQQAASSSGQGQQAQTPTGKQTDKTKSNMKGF
T4 sequence (Q96SW2 whole entry): as the sequence (Q96SW2 whole entry) above
T4 sequence (Q16531 whole entry partner): as the sequence (Q16531 whole entry partner) above

IKZF3 = target: T5, IKZF3 (Homo sapiens, UniProt Q96SW2+Q9UKT9); experiment: Western-blot assay, substrate protein degradation in hPBMCs: IKZF3; settings: for IKZF3 substrate protein remaining %: compounds at 50 nM and 500 nM, 24 hours; for substrate protein remaining % IKZF3: 24 hours of compound treatment, 50 nM and 500 nM
T5 construct: effects of the compounds of the present disclosure on the expression of target proteins in cells; endogenous in cells; host or cells: human PBMCs (hPBMCs)
T5 sequence (Q9UKT9 whole entry): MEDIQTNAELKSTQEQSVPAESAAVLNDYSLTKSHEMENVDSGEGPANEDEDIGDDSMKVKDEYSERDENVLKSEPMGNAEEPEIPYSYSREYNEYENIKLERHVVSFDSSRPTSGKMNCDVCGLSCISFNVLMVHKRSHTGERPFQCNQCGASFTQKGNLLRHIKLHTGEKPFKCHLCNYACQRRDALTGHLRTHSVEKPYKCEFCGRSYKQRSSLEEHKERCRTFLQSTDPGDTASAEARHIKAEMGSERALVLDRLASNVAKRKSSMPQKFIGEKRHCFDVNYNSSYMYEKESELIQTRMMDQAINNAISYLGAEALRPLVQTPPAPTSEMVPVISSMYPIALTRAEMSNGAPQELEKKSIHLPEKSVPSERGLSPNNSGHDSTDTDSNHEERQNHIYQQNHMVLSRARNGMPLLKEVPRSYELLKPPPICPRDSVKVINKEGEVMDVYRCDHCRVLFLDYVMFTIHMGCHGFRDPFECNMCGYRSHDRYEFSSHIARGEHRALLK
T5 sequence (Q96SW2 whole entry): as the sequence (Q96SW2 whole entry) above
T5 sequence (Q16531 whole entry partner): as the sequence (Q16531 whole entry partner) above

WEE1 = target: T6, WEE1 (Homo sapiens, UniProt P30291+Q96SW2); experiment: Western-blot assay, substrate protein degradation in hPBMCs: WEE1; settings: for WEE1 substrate protein remaining %: compounds at 50 nM and 500 nM, 24 hours; for substrate protein remaining % WEE1: 24 hours of compound treatment, 50 nM and 500 nM
T6 construct: effects of the compounds of the present disclosure on the expression of target proteins in cells; endogenous in cells; host or cells: human PBMCs (hPBMCs)
T6 sequence (P30291 whole entry): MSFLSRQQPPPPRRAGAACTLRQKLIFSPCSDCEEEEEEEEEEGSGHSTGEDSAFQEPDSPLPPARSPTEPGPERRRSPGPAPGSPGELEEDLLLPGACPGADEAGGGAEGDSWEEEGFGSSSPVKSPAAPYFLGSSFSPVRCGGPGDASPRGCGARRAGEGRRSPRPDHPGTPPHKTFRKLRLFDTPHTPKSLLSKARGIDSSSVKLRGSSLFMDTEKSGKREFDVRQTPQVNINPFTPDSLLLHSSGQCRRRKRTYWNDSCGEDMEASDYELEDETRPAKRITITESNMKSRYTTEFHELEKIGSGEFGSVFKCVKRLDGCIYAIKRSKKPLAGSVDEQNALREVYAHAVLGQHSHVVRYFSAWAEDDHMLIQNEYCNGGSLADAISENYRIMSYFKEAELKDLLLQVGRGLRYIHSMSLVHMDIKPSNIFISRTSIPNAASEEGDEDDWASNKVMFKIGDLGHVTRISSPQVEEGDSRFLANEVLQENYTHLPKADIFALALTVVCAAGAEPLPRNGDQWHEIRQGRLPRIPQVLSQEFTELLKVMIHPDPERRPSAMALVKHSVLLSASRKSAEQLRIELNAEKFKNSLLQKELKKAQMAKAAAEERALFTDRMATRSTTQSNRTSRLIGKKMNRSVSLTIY
T6 sequence (Q96SW2 whole entry): as the sequence (Q96SW2 whole entry) above
T6 sequence (Q16531 whole entry partner): as the sequence (Q16531 whole entry partner) above

Row | SMILES | IKZF2 substrate protein remaining % (IKZF2) | GSPT1 substrate protein remaining % (GSPT1) | IKZF1 substrate protein remaining % (IKZF1) | CK1α substrate protein remaining % (CK1α) | IKZF3 substrate protein remaining % (IKZF3) | WEE1 substrate protein remaining % (WEE1) | substrate protein remaining % IKZF2 (IKZF2) | substrate protein remaining % GSPT1 (GSPT1) | substrate protein remaining % IKZF1 (IKZF1) | substrate protein remaining % CK1α (CK1α) | substrate protein remaining % IKZF3 (IKZF3) | substrate protein remaining % WEE1 (WEE1)
1 | O=C1CCN(N2Cc3cc(CN4CCN(c5c(Cl)cncc5Br)CC4)ccc3C2=O)C(=O)N1 [GT-07170, 1-(5-((4-(3-bromo-5-chloropyridin-4-yl)piperazin-1-yl)methyl)-1-oxoisoindolin-2-yl)dihydropyrimidine-2,4(1H,3H)-dione] | B ("B" is defined as 80%< substrate protein remaining %≤ 100%) | B ("B" is defined as 80%< substrate protein remaining %≤ 100%) | A ("A" is defined as 0% ≤ substrate protein remaining % ≤ 80%) | B ("B" is defined as 80%< substrate protein remaining %≤ 100%) | B ("B" is defined as 80%< substrate protein remaining %≤ 100%) | A ("A" is defined as 0% ≤ substrate protein remaining % ≤ 80%) | – | – | – | – | – | –
2 | Cn1cc(C2CCN(Cc3ccc4c(c3)C(=O)N(N3CCC(=O)NC3=O)C4=O)CC2)c2ccc(F)cc21 [GT-07581, 2-(2,4-dioxotetrahydropyrimidin-1(2H)-yl)-5-((4-(6-fluoro-1-methyl-1H-indol-3-yl)piperidin-1-yl)methyl)isoindoline-1,3-dione] | – | – | – | – | – | – | A (0% ≤ substrate protein remaining % ≤ 80%) | A (0% ≤ substrate protein remaining % ≤ 80%) | A (0% ≤ substrate protein remaining % ≤ 80%) | B (80%< substrate protein remaining %≤ 100%) | B (80%< substrate protein remaining %≤ 100%) | A (0% ≤ substrate protein remaining % ≤ 80%)
3 | O=C1CCN(N2C(=O)c3ccc(CN4CCN(C(c5ccc(Cl)cc5)c5ccc(Cl)cc5)CC4)cc3C2=O)C(=O)N1 [GT-05269, 5-((4-(bis(4-chlorophenyl)methyl)piperazin-1-yl)methyl)-2-(2,4-dioxotetrahydropyrimidin-1(2H)-yl)isoindoline-1,3-dione] | B ("B" is defined as 80%< substrate protein remaining %≤ 100%) | A ("A" is defined as 0% ≤ substrate protein remaining % ≤ 80%) | B ("B" is defined as 80%< substrate protein remaining %≤ 100%) | A ("A" is defined as 0% ≤ substrate protein remaining % ≤ 80%) | B ("B" is defined as 80%< substrate protein remaining %≤ 100%) | B ("B" is defined as 80%< substrate protein remaining %≤ 100%) | – | – | – | – | – | –
4 | O=C1CCN(N2Cc3cc(CN4CCC(c5ccc(Cl)cc5)CC4)ccc3C2=O)C(=O)N1 [GT-06888, 1-(5-((4-(4-chlorophenyl)piperidin-1-yl)methyl)-1-oxoisoindolin-2-yl)dihydropyrimidine-2,4(1H,3H)-dione] | A ("A" is defined as 0% ≤ substrate protein remaining % ≤ 80%) | A ("A" is defined as 0% ≤ substrate protein remaining % ≤ 80%) | B ("B" is defined as 80%< substrate protein remaining %≤ 100%) | B ("B" is defined as 80%< substrate protein remaining %≤ 100%) | B ("B" is defined as 80%< substrate protein remaining %≤ 100%) | A ("A" is defined as 0% ≤ substrate protein remaining % ≤ 80%) | – | – | – | – | – | –
5 | O=C1CCN(N2C(=O)c3ccc(CN4CC=C(c5cccc(Cl)c5Cl)CC4)cc3C2=O)C(=O)N1 [GT-05249, 5-((4-(2,3-dichlorophenyl)-3,6-dihydropyridin-1(2H)-yl)methyl)-2-(2,4-dioxotetrahydropyrimidin-1(2H)-yl)isoindoline-1,3-dione] | B ("B" is defined as 80%< substrate protein remaining %≤ 100%) | A ("A" is defined as 0% ≤ substrate protein remaining % ≤ 80%) | A ("A" is defined as 0% ≤ substrate protein remaining % ≤ 80%) | B ("B" is defined as 80%< substrate protein remaining %≤ 100%) | B ("B" is defined as 80%< substrate protein remaining %≤ 100%) | B ("B" is defined as 80%< substrate protein remaining %≤ 100%) | – | – | – | – | – | –
6 | O=C1CCN(N2Cc3cc(CN4CCN(c5nccc(Cl)c5Br)CC4)ccc3C2=O)C(=O)N1 [GT-05432, 1-(5-((4-(3-bromo-4-chloropyridin-2-yl)piperazin-1-yl)methyl)-1-oxoisoindolin-2-yl)dihydropyrimidine-2,4(1H,3H)-dione] | B ("B" is defined as 80%< substrate protein remaining %≤ 100%) | B ("B" is defined as 80%< substrate protein remaining %≤ 100%) | B ("B" is defined as 80%< substrate protein remaining %≤ 100%) | B ("B" is defined as 80%< substrate protein remaining %≤ 100%) | B ("B" is defined as 80%< substrate protein remaining %≤ 100%) | A ("A" is defined as 0% ≤ substrate protein remaining % ≤ 80%) | B (80%< substrate protein remaining %≤ 100%) | A (0% ≤ substrate protein remaining % ≤ 80%) | B (80%< substrate protein remaining %≤ 100%) | B (80%< substrate protein remaining %≤ 100%) | B (80%< substrate protein remaining %≤ 100%) | A (0% ≤ substrate protein remaining % ≤ 80%)
7 | O=C1CCN(N2C(=O)c3ccc(CN4CCC(c5ccnc(F)c5F)CC4)cc3C2=O)C(=O)N1 [GT-07493, 5-((4-(2,3-difluoropyridin-4-yl)piperidin-1-yl)methyl)-2-(2,4-dioxotetrahydropyrimidin-1(2H)-yl)isoindoline-1,3-dione] | – | – | – | – | – | – | B (80%< substrate protein remaining %≤ 100%) | B (80%< substrate protein remaining %≤ 100%) | B (80%< substrate protein remaining %≤ 100%) | A (0% ≤ substrate protein remaining % ≤ 80%) | A (0% ≤ substrate protein remaining % ≤ 80%) | B (80%< substrate protein remaining %≤ 100%)
8 | O=C1CCN(N2Cc3cc(CN4CC=C(c5cncc(Cl)c5)CC4)ccc3C2=O)C(=O)N1 [GT-06394, 1-(5-((5-chloro-3',6'-dihydro-[3,4'-bipyridin]-1'(2'H)-yl)methyl)-1-oxoisoindolin-2-yl)dihydropyrimidine-2,4(1H,3H)-dione] | A ("A" is defined as 0% ≤ substrate protein remaining % ≤ 80%) | A ("A" is defined as 0% ≤ substrate protein remaining % ≤ 80%) | B ("B" is defined as 80%< substrate protein remaining %≤ 100%) | A ("A" is defined as 0% ≤ substrate protein remaining % ≤ 80%) | B ("B" is defined as 80%< substrate protein remaining %≤ 100%) | B ("B" is defined as 80%< substrate protein remaining %≤ 100%) | – | – | – | – | – | –
9 | O=C1CCN(N2C(=O)c3ccc(CN4CCC(N5CCCc6cc(F)ccc65)CC4)cc3C2=O)C(=O)N1 [GT-07681, 2-(2,4-dioxotetrahydropyrimidin-1(2H)-yl)-5-((4-(6-fluoro-3,4-dihydroquinolin-1(2H)-yl)piperidin-1-yl)methyl)isoindoline-1,3-dione] | – | – | – | – | – | – | B (80%< substrate protein remaining %≤ 100%) | A (0% ≤ substrate protein remaining % ≤ 80%) | A (0% ≤ substrate protein remaining % ≤ 80%) | B (80%< substrate protein remaining %≤ 100%) | B (80%< substrate protein remaining %≤ 100%) | B (80%< substrate protein remaining %≤ 100%)
10 | O=C1CCN(N2Cc3cc(CN4CCN(C(c5ccc(Cl)cc5)c5ccc(Cl)cc5)CC4)ccc3C2=O)C(=O)N1 [GT-04895, 1-(5-((4-(bis(4-chlorophenyl)methyl)piperazin-1-yl)methyl)-1-oxoisoindolin-2-yl)dihydropyrimidine-2,4(1H,3H)-dione] | A ("A" is defined as 0% ≤ substrate protein remaining % ≤ 80%) | A ("A" is defined as 0% ≤ substrate protein remaining % ≤ 80%) | A ("A" is defined as 0% ≤ substrate protein remaining % ≤ 80%) | B ("B" is defined as 80%< substrate protein remaining %≤ 100%) | B ("B" is defined as 80%< substrate protein remaining %≤ 100%) | B ("B" is defined as 80%< substrate protein remaining %≤ 100%) | – | – | – | – | – | –
11 | Cc1cc(C2=CCN(Cc3ccc4c(c3)C(=O)N(N3CCC(=O)NC3=O)C4=O)CC2)cs1 [GT-07423, 2-(2,4-dioxotetrahydropyrimidin-1(2H)-yl)-5-((4-(5-methylthiophen-3-yl)-3,6-dihydropyridin-1(2H)-yl)methyl)isoindoline-1,3-dione] | – | – | – | – | – | – | B (80%< substrate protein remaining %≤ 100%) | A (0% ≤ substrate protein remaining % ≤ 80%) | B (80%< substrate protein remaining %≤ 100%) | A (0% ≤ substrate protein remaining % ≤ 80%) | A (0% ≤ substrate protein remaining % ≤ 80%) | A (0% ≤ substrate protein remaining % ≤ 80%)
